Reference: paper PMC3265359 (Biochemical Journal, 2010)
Like-named read-outs stand apart in the source and are kept apart here.

Tests used:
COX-1 = target: T1, COX-1 (Ovis aries, UniProt P05979); assay: Inhibition of COX-1 activity by quantification of PGE2; assay type: biochemical
T1 sequence (P05979 25-600): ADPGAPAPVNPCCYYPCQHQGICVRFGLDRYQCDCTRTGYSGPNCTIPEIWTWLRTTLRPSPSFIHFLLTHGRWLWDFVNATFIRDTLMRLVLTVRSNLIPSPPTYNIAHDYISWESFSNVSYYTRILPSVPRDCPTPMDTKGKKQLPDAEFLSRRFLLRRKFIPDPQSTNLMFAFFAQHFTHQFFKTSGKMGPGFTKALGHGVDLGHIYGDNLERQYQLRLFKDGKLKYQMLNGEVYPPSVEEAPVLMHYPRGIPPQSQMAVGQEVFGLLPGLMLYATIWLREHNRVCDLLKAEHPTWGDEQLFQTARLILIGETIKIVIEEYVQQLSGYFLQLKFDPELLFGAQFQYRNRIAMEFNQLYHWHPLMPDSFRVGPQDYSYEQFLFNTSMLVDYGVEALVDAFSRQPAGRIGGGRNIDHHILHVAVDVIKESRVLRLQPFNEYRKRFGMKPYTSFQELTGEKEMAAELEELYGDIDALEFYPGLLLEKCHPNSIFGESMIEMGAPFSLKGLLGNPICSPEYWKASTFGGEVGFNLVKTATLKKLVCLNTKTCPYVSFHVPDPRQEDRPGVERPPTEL

COX-2 = target: T2, COX-2 (Homo sapiens, UniProt P35354); assay: Inhibition of COX-2 activity by quantification of PGE2; assay type: biochemical
T2 sequence (P35354 18-604): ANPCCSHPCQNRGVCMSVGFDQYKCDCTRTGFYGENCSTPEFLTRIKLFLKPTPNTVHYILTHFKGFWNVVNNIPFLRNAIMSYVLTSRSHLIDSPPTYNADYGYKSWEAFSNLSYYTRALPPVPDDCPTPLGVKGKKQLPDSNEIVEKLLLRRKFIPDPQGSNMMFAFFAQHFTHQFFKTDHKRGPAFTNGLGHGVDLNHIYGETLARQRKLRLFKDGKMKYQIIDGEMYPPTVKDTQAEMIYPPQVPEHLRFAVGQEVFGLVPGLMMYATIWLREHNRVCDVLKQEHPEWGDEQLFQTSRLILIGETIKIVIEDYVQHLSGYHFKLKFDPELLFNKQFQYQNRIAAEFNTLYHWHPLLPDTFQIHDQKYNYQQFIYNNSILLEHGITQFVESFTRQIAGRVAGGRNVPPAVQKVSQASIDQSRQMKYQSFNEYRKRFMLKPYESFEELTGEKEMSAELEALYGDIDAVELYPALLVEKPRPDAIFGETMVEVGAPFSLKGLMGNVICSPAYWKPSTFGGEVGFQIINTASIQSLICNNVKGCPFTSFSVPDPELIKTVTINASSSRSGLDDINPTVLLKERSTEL

QR2 [1] = target: T3, QR2 (Homo sapiens, UniProt P16083); assay: QR2 steady-state kinetics; assay type: biochemical; settings: for Ki: read-out: QR2 Ki, Table 1 value; for Inhibition of QR2: up to 100 μM compound, 5 nM QR2, 100 μM NMeH, 30 μM menadione
T3 sequence (P16083 1-231): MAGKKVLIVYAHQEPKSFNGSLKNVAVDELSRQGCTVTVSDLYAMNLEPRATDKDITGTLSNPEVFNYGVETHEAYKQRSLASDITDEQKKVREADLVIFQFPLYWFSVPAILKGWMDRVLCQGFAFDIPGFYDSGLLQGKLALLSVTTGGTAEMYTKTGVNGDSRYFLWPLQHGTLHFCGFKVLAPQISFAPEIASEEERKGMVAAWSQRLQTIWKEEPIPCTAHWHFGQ

QR2 [2] = target: T3, QR2; assay: ITC titration of resveratrol into QR2; assay type: binding
SIRT1 = target: T4, SIRT1 (Homo sapiens, UniProt Q96EB6); assay: ITC titration of resveratrol into SIRT1; assay type: binding; settings: 20 μM SIRT1, no substrates
T4 sequence (Q96EB6 1-747): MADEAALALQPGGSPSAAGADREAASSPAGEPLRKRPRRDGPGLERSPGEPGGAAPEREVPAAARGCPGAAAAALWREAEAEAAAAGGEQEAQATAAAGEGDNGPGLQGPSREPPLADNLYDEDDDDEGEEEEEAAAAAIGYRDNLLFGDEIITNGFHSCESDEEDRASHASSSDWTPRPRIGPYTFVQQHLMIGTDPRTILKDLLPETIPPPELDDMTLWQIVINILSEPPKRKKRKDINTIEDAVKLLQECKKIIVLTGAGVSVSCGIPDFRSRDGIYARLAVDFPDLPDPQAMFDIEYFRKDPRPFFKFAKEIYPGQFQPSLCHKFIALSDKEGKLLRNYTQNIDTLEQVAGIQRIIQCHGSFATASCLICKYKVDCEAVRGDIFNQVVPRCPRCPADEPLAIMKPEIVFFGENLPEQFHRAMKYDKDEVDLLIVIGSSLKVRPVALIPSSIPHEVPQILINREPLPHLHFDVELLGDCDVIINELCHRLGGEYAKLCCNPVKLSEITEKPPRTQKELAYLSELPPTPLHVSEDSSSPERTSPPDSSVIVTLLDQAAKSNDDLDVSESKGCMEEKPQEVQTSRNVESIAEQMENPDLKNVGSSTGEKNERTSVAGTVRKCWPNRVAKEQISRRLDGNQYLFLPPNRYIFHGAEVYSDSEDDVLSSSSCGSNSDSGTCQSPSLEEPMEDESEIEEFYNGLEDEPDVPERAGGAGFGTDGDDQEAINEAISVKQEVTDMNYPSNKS

QR1 = assay: Effect of resveratrol on QR1 activity in Hepa 1c1c7 cells; assay type: cell-based; settings: Hepa 1c1c7 mouse hepatoma cells, 48 h
[3] = after an oral dose of pure resveratrol; cited from earlier work

Row | IC50 (COX-1; read-out: COX-1 IC50, PGE2 produced from arachidonic acid) [µM] | SMILES | IC50 (COX-1) [µM] | IC50 (COX-2) [nM] | Ki (QR2 [1]) [µM] | Inhibition of QR2 (QR2 [1]) | QR2 Ki, uncompetitive against menadione (QR2 [1]; varied menadione, NMeH 100 μM) [µM] | ΔH of binding to QR2 (QR2 [2]) | TΔS of binding to QR2 (QR2 [2]; as printed in Figure 6 legend) [kcal/mol] | N (ITC binding stoichiometry, QR2) (QR2 [2]; single binding site model) | Binding to SIRT1 by ITC (SIRT1) | Effect on QR1 activity (QR1) | Human plasma concentration [3] [µM]
1 | 150 ± 5.8 | O=C(O)[C@H]1O[C@@H](Oc2cc(O)cc(/C=C/c3ccc(O)cc3)c2)[C@H](O)[C@@H](O)[C@@H]1O [Resveratrol-3-O-glucuronide, resveratrol-3-O-glucuronide] | – | – | – | – | – | – | – | – | – | – | –
2 | – | O=S(=O)(O)Oc1cc(O)cc(C=Cc2ccc(O)cc2)c1 [Resveratrol-3-O-sulfate, resveratrol-3-O-sulfate] | 68 ± 2.8 | > 300000 | > 100 | cannot detect any inhibitory activity | – | – | – | – | – | – | –
3 | – | Oc1ccc(/C=C/c2cc(O)cc(O)c2)cc1 [Resveratrol, 3,5, 4′-trans-trihydroxystilbene] | 1.1 ± 0.44 | – | – | – | 0.9 ± 0.1 | –14 kcal/mol | 3.9 | 0.9 | no detectable change in heat | only a weak activator | –
4 | – | O=S(=O)(O)Oc1ccc(C=Cc2cc(O)cc(O)c2)cc1 [Resveratrol-4′-O-sulfate, resveratrol-4′-O-sulfate] | 5.1 ± 0.55 | 2500 ± 350 | > 100 | cannot detect any inhibitory activity | – | – | – | – | – | – | 2 to 10
